From ChEMBL document CHEMBL2331303, “N-(Phenoxyalkyl)amides as MT(1) and MT(2) ligands: antioxidant properties and inhibition of Ca(2+)/CaM-dependent kinase II” (Bioorg Med Chem, 2013)
Active and inactive are the calls of the source. The rule behind the calls is not given here.

Experiments:
HepG2 [1] = assay: Antioxidant activity in human HepG2 cells assessed as reduction in H2O2-induced oxidation by DCFH-DA assay; type: functional, cell-based
[2] = tested on: Radical scavenging activity; assay: Antioxidant activity assessed as DPPH radical scavenging activity at 5.5 mM; type: functional
[3] = tested on: Radical scavenging activity; assay: Antioxidant activity assessed as DPPH radical scavenging activity at 0.1 mM; type: functional
[4] = Inhibition of active recombinant full-length CaMK2 (unknown origin) using Autocamtide substrate and [gamma32P]ATP after 30 mins by scintillation counting method; parameters: species or system Homo sapiens
[5] = tested on: Radical scavenging activity; assay: Antioxidant activity assessed as DPPH radical scavenging activity at 1 mM; type: functional
[6] = tested on: Radical scavenging activity; assay: Antioxidant activity assessed as DPPH radical scavenging activity; type: functional; conditions: dose or concentration not given here
HepG2 [7] = assay: Cytoprotective activity in human HepG2 cells assessed as reduction in H2O2-induced cell death at 10 to 100 ug/mL incubated for 2 hrs by MTT assay; type: functional, cell-based
HepG2 [8] = assay: Cytoprotective activity in human HepG2 cells assessed as reduction in H2O2-induced cell death at 100 ug/mL incubated for 2 hrs by MTT assay; type: functional; parameters: scale not given: the % may be the effect or the level left

Structure (SMILES) | IC50 (HepG2 [1]) [µM] | inhibition [2] [%] | inhibition [3] [%] | IC50 [4] [µM] | inhibition [5] [%] | further results
COc1cccc(OC(C)CNC(C)=O)c1 (racemic) | > 1000 |  |  |  |  | 
CC(=O)NCC(C)Oc1ccccc1 (racemic) | > 1000 |  |  |  |  | 
COc1ccc2[nH]cc(CCNC(C)=O)c2c1 [MELATONIN] | 271 | 31.8 | 2.1 | 128 | 7.8 | 
CC(=O)NC(C)COc1ccccc1 (racemic) | > 1000 |  |  |  |  | 
O=C(O)c1cc(O)c(O)c(O)c1 |  |  | 97.1 |  |  | inhibition [6]: 6%
COc1cccc(OC(C)CNC(=O)C2CC2)c1 (racemic) | > 1000 |  |  | 107 |  | 
CCCC(=O)NC[C@H](C)Oc1cccc(OC)c1 | > 1000 | 15.1 | 2.8 | 77 | 1.3 | 
COc1cccc(O[C@@H](C)CNC(=O)C2CC2)c1 |  |  |  | 117 |  | 
COc1cccc(O[C@H](C)CNC(=O)C2CC2)c1 |  |  |  | 129 |  | 
CCCC(=O)NC[C@@H](C)Oc1cccc(OC)c1 | 183 | 20.7 | 5.6 | 129 | 5.1 | Activity (HepG2 [7]): Active; Activity (HepG2 [8]): 100%
CCCC(=O)NCC(C)Oc1cccc(OC)c1 (racemic) | 226 | 11.7 | 3.22 | 122 | 4.05 | Activity (HepG2 [7]): Active
CC(=O)NCCOc1ccccc1 | > 1000 |  |  |  |  | 
